Target: T1, estrogen receptor derived from bovine uterus (Bos taurus, UniProt P49884)
T1 construct: estrogen receptor derived from bovine uterus was diluted with the assay buffer solution so that 10 to 20 μg total protein was present; from tissue; host or cells: bovine uterus
T1 sequence (P49884 1-596): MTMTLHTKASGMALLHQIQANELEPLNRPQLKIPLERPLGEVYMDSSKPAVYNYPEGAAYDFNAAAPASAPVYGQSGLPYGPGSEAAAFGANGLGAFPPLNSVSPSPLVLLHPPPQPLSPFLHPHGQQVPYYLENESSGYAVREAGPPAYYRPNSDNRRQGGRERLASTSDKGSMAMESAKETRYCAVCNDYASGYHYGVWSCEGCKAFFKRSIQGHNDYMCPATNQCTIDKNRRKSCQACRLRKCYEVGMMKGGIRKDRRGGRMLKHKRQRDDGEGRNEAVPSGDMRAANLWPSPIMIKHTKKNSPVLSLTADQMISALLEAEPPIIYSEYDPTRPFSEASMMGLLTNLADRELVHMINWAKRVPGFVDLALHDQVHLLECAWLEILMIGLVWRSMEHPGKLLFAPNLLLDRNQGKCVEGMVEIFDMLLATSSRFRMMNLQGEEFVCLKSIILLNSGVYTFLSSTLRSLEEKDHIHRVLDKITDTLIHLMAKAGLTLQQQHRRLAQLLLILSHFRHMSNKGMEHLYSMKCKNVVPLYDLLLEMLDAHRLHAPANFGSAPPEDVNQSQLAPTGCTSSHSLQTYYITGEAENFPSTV
Assay: In vitro estrogen receptor binding assay
Details: read-out: Estrogen receptor binding affinity: Ki
Method: The binding affinity of the compound according to the present invention to estrogen receptor was measured using an in vitro estrogen receptor binding assay. The binding affinity measures the ability of the compound according to the present invention to remove [^3H]-estradiol from estrogen receptor derived from bovine uterus. The following materials were used in this assay: (1) the assay buffer solution was 20 mM Tris/HCl (pH 7.5) containing 1 mM dithiothreitol (DTT), 1 mM EDTA and 10% glycerol; (2) radioactive ligand was [^3H]-estradiol purchased from Amersham Life Science; (3) the cold ligand was diethylstilbestrol purchased from sigma (Sigma); and (4) the estrogen receptor was derived from bovine uterus. The compound to be tested was prepared as a 10% DMSO solution. [^3H]-estradiol was dissolved in the assay buffer solution so as to obtain a final concentration of 1 nM. […] Each plate contains total binding, non-specific binding and the binding which were not inhibited by various concentrations of the compound. The plate was incubated for 1 hour at room temperature. […] These mixtures were centrifuged, and the supernatant thereof was evaluated for its radioactivity using a liquid scintillation counter. Specific binding was calculated by subtracting non-specific binding dpm (counts remaining in the supernatant obtained by centrifugal separation of a reaction mixture containing estrogen receptor derived from bovine uterus, radioactive ligand and excess cold ligand) from the total binding dpm (counts remaining in the supernatant obtained by centrifugal separation of a reaction mixture containing estrogen receptor derived from bovine uterus and radioactive ligand only). The effectiveness of the compound was evaluated by Ki. […] C is the concentration of [^3H]-estradiol in the reaction mixture, and Kd is the [^3H]-estradiol dissociation constant. The Kd was determined by Scatchard analysis. That is to say, various concentrations of [^3H]-estradiol were used to measure the concentration of specifically bound [^3H]-estradiol, which served as the horizontal axis, the value which was obtained by dividing the concentration of specifically bound [^3H]-estradiol by the concentration [^3H]-estradiol not bound to the receptor served as the vertical axis to produce a plot, and the negative value of the inverse of the slope of the resulting straight line was used as Kd.

SMILES	Ki
CCN(Cc1ccc(OCCN2CCCCC2)c(F)c1)c1cc(O)ccc1[C@@H]1CCc2cc(O)ccc2C1 [188 (R), (R)-6-{2-{ethyl-[3-fluoro-4-(2-piperidin-1-ylethoxy)benzyl]amino}-4-hydroxyphenyl}-5,6,7,8-tetrahydronaphthalen-2-ol]	1.2 nM
O=C(c1ccc(OCCN2CCCCC2)cc1)c1cc(O)ccc1-c1ccc2cc(O)ccc2c1 [Example 8, [5-Hydroxy-2-(6-hydroxynaphthalen-2-yl)phenyl][4-(2-piperidin-1-yl-ethoxy)phenyl]methanone]	0.64 nM
O=c1cccc(C2=Cc3ccc(O)cc3CCC2)n1Cc1ccc(OCCN2CCCCCC2)cc1 [Example 15, 1-[4-(2-Azepan-1-ylethoxy)benzyl]-6-(2-hydroxy-8,9-dihydro-7H-benzocyclohepten-6-yl)-1H-pyridin-2-one]	60 nM
Oc1ccc2c(c1)CCN(c1cc(O)ccc1Cc1ccc(OCCN3CCCCC3)cc1)CC2 [Example 21, 3-{5-Hydroxy-2-[4-(2-piperidin-1-ylethoxy)benzyl]phenyl}-2,3,4,5-tetrahydro-1H-benz[d]azepin-7-ol]	47 nM
CCN(CC)c1cc(O)ccc1C1CCc2cc(O)ccc2C1 (centres unmarked) [Example 44, 6-(2-Diethylamino-4-hydroxyphenyl)-5,6,7,8-tetrahydronaphthalen-2-ol]	21 nM
CCN(Cc1ccccc1)c1cc(O)ccc1C1CCc2cc(O)ccc2C1 (centres unmarked) [Example 45, 6-[2-(Benzylethylamino)-4-hydroxyphenyl]-5,6,7,8-tetrahydronaphthalen-2-ol]	8.4 nM
CN(CCc1ccc(O)cc1)c1cc(O)ccc1C1CCc2cc(O)ccc2C1 (centres unmarked) [Example 48, 6-{4-Hydroxy-2-{[2-(4-hydroxyphenyl)ethyl]methylamino}phenyl}-5,6,7,8-tetrahydronaphthalen-2-ol]	13 nM
CCN(Cc1ccncc1)c1cc(O)ccc1C1CCc2cc(O)ccc2C1 (centres unmarked) [Example 54, 6-{2-[Ethyl(pyridin-4-ylmethyl)amino]-4-hydroxyphenyl}-5,6,7,8-tetrahydronaphthalen-2-ol]	32 nM
CCn1ccc2c(O)ccc(C3CCc4cc(O)ccc4C3)c21 (centres unmarked) [Example 55, 1-Ethyl-7-(6-hydroxy-1,2,3,4-tetrahydronaphthalen-2-yl)-1H-indol-4-ol]	84 nM
CN(Cc1ccc(OCCN2CCCCC2)cc1)c1cc(O)ccc1-c1ccc2cc(O)ccc2c1 [Example 113, 6-{4-Hydroxy-2-{methyl[4-(2-piperidin-1-ylethoxy)benzyl]amino}phenyl}naphthalen-2-ol]	1.6 nM
Oc1ccc2c(c1)CCC(c1ccc(O)cc1NCc1ccc(OCCN3CCCCC3)cc1)=C2 [Example 130, 6-{4-Hydroxy-2-[4-(2-piperidin-1-ylethoxy)benzylamino]phenyl}-7,8-dihydronaphthalen-2-ol]	8.2 nM
OCCN(Cc1ccc(OCCN2CCCCCC2)cc1)c1cc(O)ccc1C1CCc2cc(O)ccc2C1 (centres unmarked) [Example 177, 6-{2-{[4-(2-Azepan-1-ylethoxy)benzyl](2-hydroxyethyl)amino}-4-hydroxyphenyl}-5,6,7,8-tetrahydronaphthalen-2-ol]	18 nM
Oc1ccc2c(c1)CCC(c1ccc(O)cc1N(Cc1ccc(OCCN3CCCCCC3)cc1)CC(F)(F)F)C2 (centres unmarked) [Example 179, 6-{2-{[4-(2-Azepan-1-ylethoxy)benzyl](2,2,2-trifluoroethyl)amino}-4-hydroxyphenyl}-5,6,7,8-tetrahydronaphthalen-2-ol]	9 nM
COCCN(Cc1ccc(OCCN2CCCCC2)c(F)c1)c1cc(O)ccc1C1CCc2cc(O)ccc2C1 (centres unmarked) [Example 183, 6-{2-{[3-Fluoro-4-(2-piperidin-1-ylethoxy)benzyl](2-methoxyethyl)amino}-4-hydroxyphenyl}-5,6,7,8-tetrahydronaphthalen-2-ol]	18 nM
CCN(Cc1ccc(OCCN2CCCCCC2)cc1)c1cccc(C)c1C1CCc2cc(O)ccc2C1 (centres unmarked) [Example 293, 6-{2-{[4-(2-Azepan-1-ylethoxy)benzyl]ethylamino}-6-methylphenyl}-5,6,7,8-tetrahydronaphthalen-2-ol]	32 nM
CCN(Cc1ccc(OCCN2CCCCC2)c(F)c1)c1ccc(F)cc1C1CCc2cc(O)ccc2C1 (centres unmarked) [Example 295, 6-{2-{Ethyl[3-fluoro-4-(2-piperidin-1-ylethoxy)benzyl]amino}-5-fluorophenyl}-5,6,7,8-tetrahydronaphthalen-2-ol]	17 nM
CCN(Cc1ccc(OCCN2CCCCCC2)cc1)c1cc(O)ccc1C1CCCc2cc(O)ccc2C1 (centres unmarked) [Example 298, 6-{2-{[4-(2-Azepan-1-ylethoxy)benzyl]ethylamino}-4-hydroxyphenyl}-6,7,8,9-tetrahydro-5H-benzocyclohepten-2-ol]	13 nM
CC1(C)c2ccc(O)cc2CCC1c1ccc(O)cc1Nc1ccc(OCCN2CCCCC2)c(F)c1 (centres unmarked) [Example 305, 6-{2-[3-Fluoro-4-(2-piperidin-1-ylethoxy)phenylamino]-4-hydroxyphenyl}-5,5-dimethyl-5,6,7,8-tetrahydronaphthalen-2-ol]	8.6 nM
CCN(Cc1ccc(OCCN2CCCCCC2)cc1)c1cc(O)ccc1C1=Cc2ccc(O)cc2CC1(C)C [Example 311, 6-{2-{[4-(2-Azepan-1-ylethoxy)benzyl]ethylamino}-4-hydroxyphenyl}-7,7-dimethyl-7,8-dihydronaphthalen-2-ol]	5.1 nM
Oc1ccc(-c2nc3ccc(O)cc3s2)c(NCc2ccc(OCCN3CCCCC3)cc2)c1 [Example 319, 2-{4-Hydroxy-2-[4-(2-piperidin-1-ylethoxy)benzylamino]phenyl}benzothiazol-6-ol]	1.6 nM
CCN(Cc1ccc(OCCN2CCCCC2)c(F)c1)c1cc(O)ccc1-c1cc2ccc(O)cc2s1 [Example 322, 2-{2-{Ethyl[3-fluoro-4-(2-piperidin-1-ylethoxy)benzyl]amino}-4-hydroxyphenyl}benzo[b]thiophen-6-ol]	3.1 nM
ON=C1CCc2cc(-c3ccc(O)cc3Nc3ccc(OCCN4CCCCC4)cc3)ccc21 [Example 327, 5-{4-Hydroxy-2-[4-(2-piperidin-1-ylethoxy)phenylamino]phenyl}indan-1-one oxime]	42 nM
CCN(Cc1ccc(OCCN2CCCCCC2)cc1)c1cc(O)ccc1C1CCN(c2cccc(O)c2)C1 (centres unmarked) [Example 329, 3-{[4-(2-Azepan-1-ylethoxy)benzyl]ethylamino}-4-[1-(3-hydroxyphenyl)pyrrolidin-3-yl]phenol]	94 nM
Oc1ccc2c(c1)CCC(c1ccc(O)cc1N1Cc3ccc(OCCN4CCCCC4)cc3C1)C2 (centres unmarked) [Example 338, 6-{4-Hydroxy-2-[5-(2-piperidin-1-ylethoxy)-1,3-dihydroisoindol-2-yl]phenyl}-5,6,7,8-tetrahydronaphthalen-2-ol]	22 nM
CN(Cc1ccc(OCCN2CCCCC2)cc1)c1cc(O)ccc1CCc1ccc(O)cc1 [Example 343, 4-[2-(4-Hydroxyphenyl)ethyl]-3-{methyl-[4-(2-piperidin-1-ylethoxy)benzyl]amino}phenol]	31 nM
Oc1ccc(/C=C/c2ccc(O)cc2NCc2ccc(OCCN3CCCCC3)c(F)c2)cc1 [Example 349, 3-[3-Fluoro-4-(2-piperidin-1-ylethoxy)benzylamino]-4-[2-(4-hydroxyphenyl)vinyl]phenol]	16 nM
CC(C)N(CCOc1ccc(CCc2cc(O)ccc2C2CCc3cc(O)ccc3C2)cc1)C(C)C (centres unmarked) [Example 357, 6-{2-{2-[4-(2-Diisopropylaminoethoxy)phenyl]ethyl}-4-hydroxyphenyl}-5,6,7,8-tetrahydronaphthalen-2-ol]	8.2 nM
CCN(Cc1ccc(OC2CC3CCC(C2)N3C)c(F)c1)c1cc(O)ccc1C1CCc2cc(O)ccc2C1 (centres unmarked) [Example 367, 6-{2-{Ethyl[3-fluoro-4-(8-methyl-8-azabicyclo[3.2.1]oct-3-yloxy)benzyl]amino}-4-hydroxyphenyl}-5,6,7,8-tetrahydronaphthalen-2-ol]	1.8 nM
CCN1CCN(CCOc2ccc(CN(CC)c3cc(O)ccc3C3CCc4cc(O)ccc4C3)cc2)CC1 (centres unmarked) [Example 373, 6-{2-{Ethyl{4-[2-(4-ethylpiperazin-1-yl)ethoxy]benzyl}amino}-4-hydroxyphenyl}-5,6,7,8-tetrahydronaphthalen-2-ol]	5 nM

— patent US8399520B2, “Selective estrogen receptor modulator” (Eisai R&D Management Co., Ltd., priority 2002, dated 2013)
